Reference: paper PMC11852804, “Conformational flexibility is a critical factor in designing broad-spectrum human norovirus protease inhibitors” (Journal of Virology, 2025)
Like-named read-outs stand apart in the source and are kept apart here.

Legend:
GII.3-Pro [1] = biological target: GII.3-Pro (Norovirus Hu/Texas/TCH04-577/2004/US, UniProt B2DD26, R1120A); conditions: read-out: KI
GII.4-Pro Sydney [2] = biological target: T1, GII.4-Pro Sydney (Norovirus Hu/GII.4/Sydney/NSW0514/2012/AU, UniProt K4L8Z7, R1120A); conditions: read-out: KI
Text: (§1) FRET protease assay, time-dependent inhibition on GII.4-Pro Sydney

GII.4-Pro Sydney [3] = biological target: T2, GII.4-Pro Sydney (Norovirus Hu/GII.4/Sydney/NSW0514/2012/AU, UniProt K4L8Z7); experiment: FRET protease assay, time-dependent inhibition; type: biochemical; conditions: covalent; GII FRET peptide substrate; pH 8.0, 37 °C, 10 mM DTT; corrected for substrate competition
T2 construct: mature protease cut from ORF1 polyprotein; tag cut with 3C protease when used

GII.3-Pro [4] = biological target: T3, GII.3-Pro (Norovirus Hu/Texas/TCH04-577/2004/US, UniProt B2DD26); experiment: FRET protease assay, time-dependent inhibition; type: biochemical
T3 construct: mature protease cut from ORF1 polyprotein; tag cut with 3C protease when used

[5] = biological target: T4, (Norovirus norwalkense, UniProt A9YYE3); experiment: FRET protease assay, time-dependent inhibition; type: biochemical
T4 construct: mature protease cut from ORF1 polyprotein; pET-46b(+) His-tag with thrombin site, E. coli XJb(DE3); tag cut with thrombin when used

GII.4-Pro Sydney [6] = biological target: T2, GII.4-Pro Sydney; experiment: FRET protease assay, time-dependent inhibition; type: biochemical
GII.3-Pro [7] = biological target: T3, GII.3-Pro; experiment: FRET protease assay, time-dependent inhibition; type: biochemical; conditions: covalent; GII FRET peptide substrate; pH 8.0, 37 °C, 10 mM DTT; corrected for substrate competition
GI.1-Pro [8] = biological target: T5, GI.1-Pro (Norovirus Hu/1968/US, UniProt Q83883, R1212A); type: biochemical; conditions: covalent; tight-binding conditions, kchem approximation; GI.1 FRET peptide substrate; pH 8.0, 37 °C, 10 mM DTT; corrected for substrate competition
T5 construct: gene ORF1

GII.4-Pro Sydney [9] = biological target: T1, GII.4-Pro Sydney; experiment: biochemical; conditions: read-out: kinact/KI (M^-1s^-1)
Text: as §1

GII.4-Pro HOV [10] = tested on: GII.4-Pro HOV
Text: FRET protease assay, time-dependent inhibition on GII.4-Pro HOV

GII.4-Pro HOV [11] = tested on: T6, GII.4-Pro HOV; experiment: FRET protease assay, time-dependent inhibition; type: biochemical, Norovirus norwalkense; conditions: covalent; GII FRET peptide substrate; pH 8.0, 37 °C, 10 mM DTT; corrected for substrate competition
T6 construct: mature protease cut from ORF1 polyprotein; pET-46b(+) His-tag with thrombin site, E. coli XJb(DE3); tag cut with thrombin when used

GI.1-Pro [12] = biological target: T7, GI.1-Pro (Norovirus Hu/1968/US, UniProt Q83883); experiment: FRET protease assay, time-dependent inhibition; type: biochemical
T7 construct: gene ORF1; mature protease cut from ORF1 polyprotein; pET-46b(+) His-tag with thrombin site, E. coli XJb(DE3); tag cut with thrombin when used
Text: FRET protease assay, time-dependent inhibition on GI.1-Pro

## CCOC(=O)/C=C/[C@H](C[C@@H]1CCNC1=O)NC(=O)[C@@H](CC(=O)[C@@H](NC(=O)c1cc(C)on1)C(C)C)Cc1ccc(F)cc1 [rupintrivir]
GII.3-Pro [1]
  KI (inactivation): 94 ± 38 µM
GII.4-Pro Sydney [2]
  KI (inactivation): 438 ± 299 µM
GII.4-Pro Sydney [3]
  KI (inactivation): 1090 µM
GII.3-Pro [4]
  kinact/KI: 5.34 ± 0.52 M⁻¹ s⁻¹
[5]
  kinact/KI: 5.78 ± 0.21 M⁻¹ s⁻¹
GII.4-Pro Sydney [6]
  kinact/KI: 3.73 ± 0.28 M⁻¹ s⁻¹
GII.3-Pro [7]
  KI (inactivation): 1310 µM
GI.1-Pro [8]
  kinact/KI: 233.5 ± 8.8 M⁻¹ s⁻¹
GII.4-Pro Sydney [9]
  kinact/KI: 4.53 ± 0.59 M⁻¹ s⁻¹
GII.4-Pro HOV [10]
  kinact/KI: 6.52 ± 0.77 M⁻¹ s⁻¹
GII.4-Pro HOV [10]; read-out: KI
  KI (inactivation): 564 ± 513 µM
GII.4-Pro HOV [11]
  KI (inactivation): 457 ± 52 µM
GI.1-Pro [12]
  kinact/KI: 294 ± 5.7 M⁻¹ s⁻¹
